Data from PubChem BioAssay AID1963971 (Molecular Pharmacology Branch, DTP, NCI, 2024).

Test system: 953936-095-R-J2-PDC spheroids with HUVEC/MSC, viability
Experiment: Anticancer human tumor 953936-095-R-J2-PDC patient-derived cervical squamous cell carcinoma cell line growth inhibition [PI3K]
Details: for IC50: curve of first compound; for viability, T/C: stronger effect = lower value
Method in brief: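 Agents were dosed from a top concentration near clinical Cmax (otherwise 10 microM) in half-log decrements, alone or combined with PI3K inhibitors. The spheroids contain tumor cells plus endothelial (HUVEC) and MSC stroma; viability is measured.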

[1] = second compound 0.00316 µM, first compound 0.0316 µM
[2] = second compound 0.00316 µM, first compound 0.1 µM
[3] = second compound 0.00316 µM, first compound 0.316 µM
[4] = second compound 0.00316 µM, first compound 1 µM
[5] = second compound 0.00316 µM, first compound 3.16 µM
[6] = second compound 0.00316 µM, first compound 10 µM
[7] = second compound 0.01 µM, first compound 0.0316 µM
[8] = second compound 0.01 µM, first compound 0.1 µM
[9] = second compound 0.01 µM, first compound 0.316 µM
[10] = second compound 0.01 µM, first compound 1 µM
[11] = second compound 0.01 µM, first compound 3.16 µM
[12] = second compound 0.01 µM, first compound 10 µM
[13] = second compound 0.0316 µM, first compound 0.0316 µM
[14] = second compound 0.0316 µM, first compound 0.1 µM
[15] = second compound 0.0316 µM, first compound 0.316 µM
[16] = second compound 0.0316 µM, first compound 1 µM
[17] = second compound 0.0316 µM, first compound 3.16 µM
[18] = second compound 0.0316 µM, first compound 10 µM
[19] = second compound 0.1 µM, first compound 0.0316 µM
[20] = second compound 0.1 µM, first compound 0.1 µM
[21] = second compound 0.1 µM, first compound 0.316 µM
[22] = second compound 0.1 µM, first compound 1 µM
[23] = second compound 0.1 µM, first compound 3.16 µM
[24] = second compound 0.1 µM, first compound 10 µM
[25] = second compound 0.316 µM, first compound 0.0316 µM
[26] = second compound 0.316 µM, first compound 0.1 µM
[27] = second compound 0.316 µM, first compound 0.316 µM
[28] = second compound 0.316 µM, first compound 1 µM
[29] = second compound 0.316 µM, first compound 3.16 µM
[30] = second compound 0.316 µM, first compound 10 µM
[31] = second compound 1 µM, first compound 0.0316 µM
[32] = second compound 1 µM, first compound 0.1 µM
[33] = second compound 1 µM, first compound 0.316 µM
[34] = second compound 1 µM, first compound 1 µM
[35] = second compound 1 µM, first compound 3.16 µM
[36] = second compound 1 µM, first compound 10 µM
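Note: spheroids exposed to compounds for seven days before read-out.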

## C#Cc1c(F)ccc2cc(O)cc(-c3ncc4c(N5CC6CCC(C5)N6)nc(OCC56CCCN5CC(F)C6)nc4c3F)c12 (stereo not drawn) + CC(Nc1ccc2c(c1)OCCn1cc(N3C(=O)OCC3C(F)F)nc1-2)C(N)=O
Second compound 0.00316 µM
  IC50: > 10000 nM
Second compound 0.01 µM
  IC50: > 10000 nM
Second compound 0.0316 µM
  IC50: 7100 nM
Second compound 0.1 µM
  IC50: 1020 nM
Second compound 0.316 µM
  IC50: < 31.6 nM
Second compound 1 µM
  IC50: < 31.6 nM
[1]
  viability, T/C: 95.9%
[2]
  viability, T/C: 110%
[3]
  viability, T/C: 89.5%
[4]
  viability, T/C: 87.6%
[5]
  viability, T/C: 71.6%
[6]
  viability, T/C: 76.3%
[7]
  viability, T/C: 92.5%
[8]
  viability, T/C: 95%
[9]
  viability, T/C: 80.9%
[10]
  viability, T/C: 88.2%
[11]
  viability, T/C: 64.8%
[12]
  viability, T/C: 61%
[13]
  viability, T/C: 78.3%
[14]
  viability, T/C: 81.6%
[15]
  viability, T/C: 76.1%
[16]
  viability, T/C: 70%
[17]
  viability, T/C: 61.5%
[18]
  viability, T/C: 45.2%
[19]
  viability, T/C: 60.1%
[20]
  viability, T/C: 64.7%
[21]
  viability, T/C: 57.4%
[22]
  viability, T/C: 48.3%
[23]
  viability, T/C: 41.2%
[24]
  viability, T/C: 30%
[25]
  viability, T/C: 38.3%
[26]
  viability, T/C: 34.6%
[27]
  viability, T/C: 36.1%
[28]
  viability, T/C: 28.2%
[29]
  viability, T/C: 22.6%
[30]
  viability, T/C: 17.3%
[31]
  viability, T/C: 24%
[32]
  viability, T/C: 21.9%
[33]
  viability, T/C: 21.6%
[34]
  viability, T/C: 16%
[35]
  viability, T/C: 12.4%
[36]
  viability, T/C: 9.54%

## CC1(C)CCC(Nc2ncc(C(F)(F)F)c(-c3c[nH]c4c(P(C)(C)=O)c(C#N)ccc34)n2)CN1 (stereo not drawn) + CC(Nc1ccc2c(c1)OCCn1cc(N3C(=O)OCC3C(F)F)nc1-2)C(N)=O
Second compound 0.00316 µM
  IC50: < 31.6 nM
Second compound 0.01 µM
  IC50: < 31.6 nM
Second compound 0.0316 µM
  IC50: < 31.6 nM
Second compound 0.1 µM
  IC50: < 31.6 nM
Second compound 0.316 µM
  IC50: < 31.6 nM
Second compound 1 µM
  IC50: < 31.6 nM
[1]
  viability, T/C: 48.3%
[2]
  viability, T/C: 44.8%
[3]
  viability, T/C: 49.2%
[4]
  viability, T/C: 58.6%
[5]
  viability, T/C: 45.3%
[6]
  viability, T/C: 5.82%
[7]
  viability, T/C: 49.9%
[8]
  viability, T/C: 45%
[9]
  viability, T/C: 42.8%
[10]
  viability, T/C: 51.6%
[11]
  viability, T/C: 50.3%
[12]
  viability, T/C: 5.56%
[13]
  viability, T/C: 45.9%
[14]
  viability, T/C: 42.4%
[15]
  viability, T/C: 39.2%
[16]
  viability, T/C: 40.8%
[17]
  viability, T/C: 44.9%
[18]
  viability, T/C: 4.63%
[19]
  viability, T/C: 38.5%
[20]
  viability, T/C: 32.2%
[21]
  viability, T/C: 35.2%
[22]
  viability, T/C: 32.7%
[23]
  viability, T/C: 41.1%
[24]
  viability, T/C: 3.61%
[25]
  viability, T/C: 21.5%
[26]
  viability, T/C: 22.4%
[27]
  viability, T/C: 22.4%
[28]
  viability, T/C: 22.4%
[29]
  viability, T/C: 19.8%
[30]
  viability, T/C: 1.3%
[31]
  viability, T/C: 16.5%
[32]
  viability, T/C: 16.3%
[33]
  viability, T/C: 17.7%
[34]
  viability, T/C: 16.6%
[35]
  viability, T/C: 15.7%
[36]
  viability, T/C: 0.88%

## CNC(=O)c1ccc(N2C(=S)N(c3ccc(C#N)c(C(F)(F)F)c3)C(=O)C2(C)C)cc1F + CC(Nc1ncnc2nc[nH]c12)c1cc2cccc(Cl)c2c(=O)n1-c1ccccc1
Second compound 0.0316 µM
  IC50: > 10000 nM
Second compound 0.1 µM
  IC50: > 10000 nM
Second compound 0.316 µM
  IC50: > 10000 nM
Second compound 1 µM
  IC50: > 10000 nM
Second compound 3.16 µM
  IC50: > 10000 nM
Second compound 10 µM
  IC50: > 10000 nM
[13]
  viability, T/C: 97.9%
[14]
  viability, T/C: 108%
[15]
  viability, T/C: 100%
[16]
  viability, T/C: 91.9%
[17]
  viability, T/C: 103%
[18]
  viability, T/C: 85.7%
[19]
  viability, T/C: 94.2%
[20]
  viability, T/C: 104%
[21]
  viability, T/C: 108%
[22]
  viability, T/C: 93%
[23]
  viability, T/C: 83.2%
[24]
  viability, T/C: 74.2%
[25]
  viability, T/C: 111%
[26]
  viability, T/C: 88.6%
[27]
  viability, T/C: 92.4%
[28]
  viability, T/C: 96.3%
[29]
  viability, T/C: 95.2%
[30]
  viability, T/C: 70.9%
[31]
  viability, T/C: 94.3%
[32]
  viability, T/C: 95.4%
[33]
  viability, T/C: 83.8%
[34]
  viability, T/C: 88.9%
[35]
  viability, T/C: 84.7%
[36]
  viability, T/C: 78%
Second compound 3.16 µM, first compound 0.0316 µM
  viability, T/C: 76.6%
Second compound 3.16 µM, first compound 0.1 µM
  viability, T/C: 83.1%
Second compound 3.16 µM, first compound 0.316 µM
  viability, T/C: 71.8%
Second compound 3.16 µM, first compound 1 µM
  viability, T/C: 82.9%
Second compound 3.16 µM, first compound 3.16 µM
  viability, T/C: 82.1%
Second compound 3.16 µM, first compound 10 µM
  viability, T/C: 61.2%
Second compound 10 µM, first compound 0.0316 µM
  viability, T/C: 62.6%
Second compound 10 µM, first compound 0.1 µM
  viability, T/C: 67.6%
Second compound 10 µM, first compound 0.316 µM
  viability, T/C: 66.6%
Second compound 10 µM, first compound 1 µM
  viability, T/C: 58.7%
Second compound 10 µM, first compound 3.16 µM
  viability, T/C: 58.5%
Second compound 10 µM, first compound 10 µM
  viability, T/C: 55%

## Cn1cnc2c(F)c(Nc3ccc(Br)cc3Cl)c(C(=O)NOCCO)cc21 + CC(Nc1ncnc2nc[nH]c12)c1cc2cccc(Cl)c2c(=O)n1-c1ccccc1
Second compound 0.0316 µM
  IC50: 2090 nM
Second compound 0.1 µM
  IC50: 956 nM
Second compound 0.316 µM
  IC50: 1160 nM
Second compound 1 µM
  IC50: 732 nM
Second compound 3.16 µM
  IC50: 366 nM
Second compound 10 µM
  IC50: < 9.49 nM
Second compound 0.0316 µM, first compound 0.00949 µM
  viability, T/C: 79.1%
Second compound 0.0316 µM, first compound 0.03 µM
  viability, T/C: 78.9%
Second compound 0.0316 µM, first compound 0.0949 µM
  viability, T/C: 69.7%
Second compound 0.0316 µM, first compound 0.3 µM
  viability, T/C: 67.6%
Second compound 0.0316 µM, first compound 0.949 µM
  viability, T/C: 57%
Second compound 0.0316 µM, first compound 3 µM
  viability, T/C: 46.6%
Second compound 0.1 µM, first compound 0.00949 µM
  viability, T/C: 90.2%
Second compound 0.1 µM, first compound 0.03 µM
  viability, T/C: 86.3%
Second compound 0.1 µM, first compound 0.0949 µM
  viability, T/C: 77.7%
Second compound 0.1 µM, first compound 0.3 µM
  viability, T/C: 57.6%
Second compound 0.1 µM, first compound 0.949 µM
  viability, T/C: 54.7%
Second compound 0.1 µM, first compound 3 µM
  viability, T/C: 39.5%
Second compound 0.316 µM, first compound 0.00949 µM
  viability, T/C: 90.2%
Second compound 0.316 µM, first compound 0.03 µM
  viability, T/C: 68.8%
Second compound 0.316 µM, first compound 0.0949 µM
  viability, T/C: 74.2%
Second compound 0.316 µM, first compound 0.3 µM
  viability, T/C: 68.2%
Second compound 0.316 µM, first compound 0.949 µM
  viability, T/C: 53.1%
Second compound 0.316 µM, first compound 3 µM
  viability, T/C: 36%
Second compound 1 µM, first compound 0.00949 µM
  viability, T/C: 85.5%
Second compound 1 µM, first compound 0.03 µM
  viability, T/C: 77.3%
Second compound 1 µM, first compound 0.0949 µM
  viability, T/C: 65%
Second compound 1 µM, first compound 0.3 µM
  viability, T/C: 58.8%
Second compound 1 µM, first compound 0.949 µM
  viability, T/C: 48.1%
Second compound 1 µM, first compound 3 µM
  viability, T/C: 38.6%
Second compound 3.16 µM, first compound 0.00949 µM
  viability, T/C: 76.4%
Second compound 3.16 µM, first compound 0.03 µM
  viability, T/C: 60.5%
Second compound 3.16 µM, first compound 0.0949 µM
  viability, T/C: 60.4%
Second compound 3.16 µM, first compound 0.3 µM
  viability, T/C: 54%
Second compound 3.16 µM, first compound 0.949 µM
  viability, T/C: 42.5%
Second compound 3.16 µM, first compound 3 µM
  viability, T/C: 33.4%
Second compound 10 µM, first compound 0.00949 µM
  viability, T/C: 47.5%
Second compound 10 µM, first compound 0.03 µM
  viability, T/C: 44.4%
Second compound 10 µM, first compound 0.0949 µM
  viability, T/C: 38.8%
Second compound 10 µM, first compound 0.3 µM
  viability, T/C: 30.5%
Second compound 10 µM, first compound 0.949 µM
  viability, T/C: 19.5%
Second compound 10 µM, first compound 3 µM
  viability, T/C: 14.8%
